Results on three compounds are retold here after article PMC11855212 (2025).

Assay [1] concerns RB IM (RB promoter i-motif) (DNA, i motif) GCCGCCCAAAACCCCCCG
In words: SPR. The settings on record: 100 mM K+; 20 mM MES, pH 5.5, 25 °C.

For assay [2], the system named is RB promoter i-motif, 5'-FAM (DNA, i motif) GCCGCCCAAAACCCCCCG
Kind of assay: MST. The conditions noted are these: 100 mM K+; 20 mM MES, pH 5.5, 25 °C.

For assay [3], the system named is RB promoter G-quadruplex, 5'-FAM (DNA, G4) CGGGGGGTTTTGGGCGGC
In words: MST. The settings on record: 100 mM K+; 50 mM Tris-HCl, pH 7.4, 25 °C.

Assay [4] has as its system hairpin (DNA, hairpin) CGCGCGCGTTTTCGCGCGCG
In words: SPR. The settings on record: 25 °C; highest concentration not stated.

The subject of assay [5] is ACC2 IM (DNA, i motif) TGACCCGCCCCCGCCCCGCCCCTGT
In words: SPR. The settings on record: 100 mM K+; 20 mM MES, pH 5.5, 25 °C.

Assay [6] has as its system ACC2 G4 (DNA, G4) GGGGCGGGGCGGGGGCGGG
In words: SPR. The conditions noted are these: 100 mM K+; 50 mM Tris-HCl, pH 7.4, 25 °C.

In assay [7] the test system is RET G4 (DNA, G4) GGGGCGGGGCGGGGGGGGG
In words: SPR. The settings on record: 100 mM K+; 50 mM Tris-HCl, pH 7.4, 25 °C.

For assay [8], the system named is c-jun IM (DNA, i motif) TAACCCCCTCCCCCTCCCCCCTTTAAT
Kind of assay: SPR. The settings on record: 100 mM K+; 20 mM MES, pH 5.5, 25 °C.

Assay [9] concerns c-jun G4 (DNA, G4) AAGGGGGGAGGGGGAGGGGGTT
In words: SPR. The settings on record: 100 mM K+; 50 mM Tris-HCl, pH 7.4, 25 °C.

Assay [10] relates to kras G4 (DNA, G4) AGGGCGGTGTGGGAAGAGGGAAGAGGGGGAGG
Kind of assay: SPR. The conditions noted are these: 100 mM K+; 50 mM Tris-HCl, pH 7.4, 25 °C.

The subject of assay [11] is RB IM (RB promoter i-motif) (DNA, i motif) GCCGCCCAAAACCCCCCG
Kind of assay: CD melting. The settings on record: 100 mM K+; BPES buffer (pH 5.5 per i-motif experiments); 2 μM DNA; compound concentration not in material.

Assay [12] relates to RB G4 (RB promoter G-quadruplex) (DNA, G4) CGGGGGGTTTTGGGCGGC
Kind of assay: CD melting. The settings on record: 100 mM K+; 50 mM Tris-HCl, pH 7.4; 2 μM DNA; compound concentration not in material.

The subject of assay [13] is RB IM (RB promoter i-motif) (DNA, i motif) GCCGCCCAAAACCCCCCG
In words: TO displacement fluorescence. The settings on record: 100 mM K+; BPES buffer, pH 5.5, 25 °C; 1 μM DNA; thiazole orange (TO) displaced.

In assay [14] the test system is RB G4 (RB promoter G-quadruplex) (DNA, G4) CGGGGGGTTTTGGGCGGC
In words: TO displacement fluorescence. The settings on record: 100 mM K+; 50 mM Tris-HCl, pH 7.4, 25 °C; 1 μM DNA; thiazole orange (TO) displaced.

In assay [15] the test system is RB IM, 5'-biotin (SPR) (DNA, i motif) GCCGCCCAAAACCCCCCG
Kind of assay: SPR. The settings on record: 100 mM K+, 20 mM MES, pH 5.5, 25 °C.

In assay [16] the test system is hairpin (DNA, hairpin) CGCGCGCGTTTTCGCGCGCG
Kind of assay: SPR. The conditions noted are these: buffer for hairpin not stated.

A value given as a limit tells only on which side of the number the result lay.

Broadly, the KD is the equilibrium constant for the complex coming apart. Low readings indicate a tighter complex, high ones a looser complex. One may read the ΔTm as the shift of the melting midpoint relative to a reference. As for `CN(CCCNc1c2ccccc2nc2ccccc12)CCCNc1c2ccccc2nc2ccccc12`, the KD in [1] was 2.44 µM; in [2] it was 0.43 ± 0.24 µM; in [3], 2.50 ± 0.65 µM; in assay [4], more than 50 µM; in assay [5] it was 41.7 µM; in assay [6], 53.1 µM. In addition, the KD in assay [7] turned out to be 30.9 µM; in [8], 27.0 µM; in assay [9] it was 43.9 µM; in assay [10], 32.5 µM. In addition, the thermal shift (ΔTm) in assay [11] is −10.7 °C; in assay [12], −6.4 °C. For the same compound, the DC50 in assay [13] was 3.4 µM; in assay [14] it was 2.7 µM.
Consider `Cc1ccc2nc3ccccc3c(NCCNCCNc3c4ccccc4nc4ccc(C)cc34)c2c1`, for which the KD in [2] is 18.06 ± 5.28 µM; in [3], 0.50 ± 0.27 µM; in [15] (Table S2 prints 9.24), 13.6 µM; in assay [16], more than 50 µM. The thermal shift (ΔTm) in assay [12] was −9.9 °C.
`C[n+]1c(/C=C/c2c3ccccc3cc3ccccc23)ccc2ccccc21`: the equilibrium dissociation constant (KD) in [1] was 36.7 µM; in [15] (unit not printed in Table S2, μM in text) it was 36.7 µM.
